The results in this text go back to publication PMC8457121, “From Kinase Inhibitors to Multitarget Ligands as Powerful Drug Leads for Alzheimer's Disease using Protein‐Templated Synthesis” (Angewandte Chemie (International Ed. in English), 2021).

One data set has as its target BACE1 (Homo sapiens, UniProt P56817). Kind of data set: In situ click chemistry with BACE1 as template (LC/MS-SIM). The note with it: BACE1 0.5 μM, reagents 100 μM, 24 h, room temperature, sodium acetate pH 4.5. Here is the method: confirmed by molecular weight. Control experiments in the absence of BACE1 were set up every time the reactions were performed. Experiment with the presence of BSA (1 mg mL−1) instead of the BACE1 enzyme was performed for […]
LRRK2 inhibition enzymatic assay. The LRRK2 inhibitors were evaluated by the ThermoFisher company under the following Adapta Assay. The assay itself can be divided into two phases: a kinase reaction phase, and an ADP detection phase. In the kinase reaction phase, all components required for the kinase reaction are added to the well, and the reaction is allowed to incubate for 60 minutes. After the reaction, a detection solution consisting of a europium labeled anti-ADP antibody, an Alexa Fluor™ 647 labeled ADP tracer, and EDTA (to stop the kinase reaction) is added to the assay well. ADP formed by the kinase reaction (in the absence of an inhibitor) will displace the Alexa Fluor 647 labeled ADP tracer from the antibody, resulting in a decrease in the TR-FRET signal. In the presence of an inhibitor, the amount of ADP formed by the kinase reaction is reduced, and the resulting intact antibodytracer interaction results in a high TR-FRET signal. ADP formation is determined by calculating the emission ratio from […]
The 2X LRRK2 / ERM (LRRKtide) mixture is prepared in 50 mM Tris pH 8.5, […]
Reaction consists of 3.75 - 70 ng LRRK2 and 200 μM ERM (LRRKtide) in 25 mM […]
NaN3. […]

BACE1, sequence (P56817 46-501): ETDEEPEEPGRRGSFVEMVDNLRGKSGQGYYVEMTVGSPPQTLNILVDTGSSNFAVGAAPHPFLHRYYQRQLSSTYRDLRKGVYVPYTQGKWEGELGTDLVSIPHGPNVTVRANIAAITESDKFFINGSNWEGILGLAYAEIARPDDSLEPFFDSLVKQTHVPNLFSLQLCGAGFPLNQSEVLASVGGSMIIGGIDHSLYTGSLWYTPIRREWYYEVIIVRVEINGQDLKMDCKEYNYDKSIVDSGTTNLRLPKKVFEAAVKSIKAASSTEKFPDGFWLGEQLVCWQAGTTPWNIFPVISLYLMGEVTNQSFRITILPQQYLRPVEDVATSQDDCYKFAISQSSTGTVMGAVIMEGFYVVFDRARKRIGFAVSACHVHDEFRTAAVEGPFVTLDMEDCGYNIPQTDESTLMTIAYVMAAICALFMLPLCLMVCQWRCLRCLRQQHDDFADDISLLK

For the compound `O=C(Nc1nc2ccccc2s1)c1ccc(Cn2cc(COc3ccc(C(=O)Nc4nc5ccccc5s4)cc3)nn2)cc1` [compound 8], the melting point is 280 to 282 °C (dec.). The “Triazole formation from building blocks in presence of BACE1” value at BACE1 is “observed”.

Broadly, the melting point is the temperature of the solid-liquid transition.
